Tests used:
[1] = tested on: Leptinotarsa decemlineata; assay: Insecticidal activity against adult Leptinotarsa decemlineata infested potato leaves assessed as mortality at 20 mg after 12 hr relative to control; assay type: functional
[2] = tested on: Leptinotarsa decemlineata; assay type: functional, Instar larval stage
[3] = tested on: Leptinotarsa decemlineata; assay: Insecticidal activity against adult Leptinotarsa decemlineata infested potato leaves assessed as mortality at 10 mg after 12 hr relative to control; assay type: functional
[4] = tested on: Leptinotarsa decemlineata; assay: Insecticidal activity against second-instar larval stage of Leptinotarsa decemlineata infested potato leaves assessed as mortality at 10 mg after 12 hr relative to control; assay type: functional
[5] = tested on: Leptinotarsa decemlineata; assay: Insecticidal activity against first-instar larval stage of Leptinotarsa decemlineata infested potato leaves assessed as mortality at 10 mg after 12 hr relative to control; assay type: functional
[6] = tested on: Leptinotarsa decemlineata; assay type: functional, Instar larval stage; remark: listed apart in the source
[7] = tested on: Leptinotarsa decemlineata; assay: Insecticidal activity against adult Leptinotarsa decemlineata infested potato leaves assessed as mortality at 10 mg after 96 hr relative to control; assay type: functional
[8] = tested on: Leptinotarsa decemlineata; assay: Insecticidal activity against first-instar larval stage of Leptinotarsa decemlineata infested potato leaves assessed as mortality at 10 mg after 96 hr relative to control; assay type: functional
[9] = tested on: Leptinotarsa decemlineata; assay: Insecticidal activity against third-instar larval stage of Leptinotarsa decemlineata infested potato leaves assessed as mortality at 10 mg after 24 hr relative to control; assay type: functional
[10] = tested on: Leptinotarsa decemlineata; assay: Insecticidal activity against first-instar larval stage of Leptinotarsa decemlineata infested potato leaves assessed as mortality at 20 mg after 24 hr relative to control; assay type: functional
[11] = tested on: Leptinotarsa decemlineata; assay: Insecticidal activity against first-instar larval stage of Leptinotarsa decemlineata infested potato leaves assessed as mortality at 20 mg after 96 hr relative to control; assay type: functional
[12] = tested on: Leptinotarsa decemlineata; assay: Insecticidal activity against third-instar larval stage of Leptinotarsa decemlineata infested potato leaves assessed as mortality at 20 mg after 24 hr relative to control; assay type: functional
[13] = tested on: Leptinotarsa decemlineata; assay: Insecticidal activity against first-instar larval stage of Leptinotarsa decemlineata infested potato leaves assessed as mortality at 10 mg after 24 hr relative to control; assay type: functional
[14] = tested on: Leptinotarsa decemlineata; assay type: functional, Instar larval stage; remark: listed apart in the source
[15] = tested on: Leptinotarsa decemlineata; assay: Insecticidal activity against first-instar larval stage of Leptinotarsa decemlineata infested potato leaves assessed as mortality at 20 mg after 48 hr relative to control; assay type: functional
[16] = tested on: Leptinotarsa decemlineata; assay: Insecticidal activity against adult Leptinotarsa decemlineata infested potato leaves assessed as mortality at 20 mg after 24 hr relative to control; assay type: functional
[17] = tested on: Leptinotarsa decemlineata; assay type: functional, Instar larval stage; remark: listed apart in the source
[18] = tested on: Leptinotarsa decemlineata; assay: Insecticidal activity against adult Leptinotarsa decemlineata infested potato leaves assessed as mortality at 20 mg after 96 hr relative to control; assay type: functional
[19] = tested on: Leptinotarsa decemlineata; assay: Insecticidal activity against third-instar larval stage of Leptinotarsa decemlineata infested potato leaves assessed as mortality at 10 mg after 12 hr relative to control; assay type: functional
[20] = tested on: Leptinotarsa decemlineata; assay: Insecticidal activity against first-instar larval stage of Leptinotarsa decemlineata infested potato leaves assessed as mortality at 10 mg after 48 hr relative to control; assay type: functional
[21] = tested on: Leptinotarsa decemlineata; assay type: functional, Instar larval stage; remark: listed apart in the source
[22] = tested on: Leptinotarsa decemlineata; assay: Insecticidal activity against first-instar larval stage of Leptinotarsa decemlineata infested potato leaves assessed as mortality at 20 mg after 12 hr relative to control; assay type: functional
[23] = tested on: Leptinotarsa decemlineata; assay: Insecticidal activity against adult Leptinotarsa decemlineata infested potato leaves assessed as mortality at 20 mg after 48 hr relative to control; assay type: functional
[24] = tested on: Leptinotarsa decemlineata; assay type: functional, Instar larval stage; remark: listed apart in the source
[25] = tested on: Leptinotarsa decemlineata; assay type: functional, Instar larval stage; remark: listed apart in the source
[26] = tested on: Leptinotarsa decemlineata; assay: Insecticidal activity against third-instar larval stage of Leptinotarsa decemlineata infested potato leaves assessed as mortality at 20 mg after 12 hr relative to control; assay type: functional
[27] = tested on: Leptinotarsa decemlineata; assay: Insecticidal activity against adult Leptinotarsa decemlineata infested potato leaves assessed as mortality at 10 mg after 48 hr relative to control; assay type: functional
[28] = tested on: Leptinotarsa decemlineata; assay type: functional, Instar larval stage; remark: listed apart in the source
[29] = tested on: Leptinotarsa decemlineata; assay: Insecticidal activity against second-instar larval stage of Leptinotarsa decemlineata infested potato leaves assessed as mortality at 20 mg after 12 hr relative to control; assay type: functional
[30] = tested on: Leptinotarsa decemlineata; assay type: functional, Instar larval stage; remark: listed apart in the source
[31] = tested on: Leptinotarsa decemlineata; assay: Insecticidal activity against adult Leptinotarsa decemlineata infested potato leaves assessed as mortality at 10 mg after 24 hr relative to control; assay type: functional
[32] = tested on: Leptinotarsa decemlineata; assay type: functional, Instar larval stage; remark: listed apart in the source

| SMILES | mortality [1] [%] | mortality [2] [%] | mortality [3] [%] | mortality [4] [%] | mortality [5] [%] | mortality [6] [%] | mortality [7] [%] | mortality [8] [%] | mortality [9] [%] | mortality [10] [%] | mortality [11] [%] | mortality [12] [%] | mortality [13] [%] | mortality [14] [%] | mortality [15] [%] | mortality [16] [%] | mortality [17] [%] | mortality [18] [%] | mortality [19] [%] | mortality [20] [%] | also measured |
| --- | --- | --- | --- | --- | --- | --- | --- | --- | --- | --- | --- | --- | --- | --- | --- | --- | --- | --- | --- | --- | --- |
| CC12CCC(C1)C(C)(C)C2O (stereo not drawn) [FENCHYL ALCOHOL] | 0 | 13.3 | 3.3 | 3.3 | 3.3 | 13.3 | 43.3 | 13.3 | 23.3 | 3.3 | 3.3 | 10 | 10 | 30 | 3.3 | 0 | 23.3 | 20 | 10 | 13.3 | mortality [21]: 10%; mortality [22]: 3.3%; mortality [23]: 6.7%; mortality [24]: 3.3%; mortality [25]: 3.3%; mortality [26]: 6.7%; mortality [27]: 16.7%; mortality [28]: 3.3%; mortality [29]: 3.3%; mortality [30]: 20%; mortality [31]: 16.7%; mortality [32]: 30% |
| CC12CCC(CC1=O)C2(C)C (stereo not drawn) [CAMPHOR] | 6.7 | 63.3 | 0 | 13.3 | 0 | 70 | 56.7 | 76.7 | 0 | 53.3 | 86.7 | 30 | 0 | 6.7 | 86.7 | 13.3 | 36.7 | 93.3 | 0 | 23.3 | mortality [21]: 46.7%; mortality [22]: 30%; mortality [23]: 43.3%; mortality [24]: 83.3%; mortality [25]: 86.7%; mortality [26]: 26.7%; mortality [27]: 36.7%; mortality [28]: 86.7%; mortality [29]: 36.7%; mortality [30]: 33.3%; mortality [31]: 0%; mortality [32]: 6.7% |
| CC1=CC[C@@H](C(C)(C)O)CC1 [ALPHA-TERPINEOL] | 0 | 6.7 | 0 | 0 | 3.3 | 13.3 | 16.7 | 16.7 | 0 | 23.3 | 30 | 13.3 | 6.7 | 0 | 26.7 | 0 | 23.3 | 23.3 | 0 | 13.7 | mortality [21]: 6.7%; mortality [22]: 16.7%; mortality [23]: 0%; mortality [24]: 3.3%; mortality [25]: 6.7%; mortality [26]: 13.3%; mortality [27]: 6.7%; mortality [28]: 10%; mortality [29]: 0%; mortality [30]: 20%; mortality [31]: 0%; mortality [32]: 0% |
| CC(C)[C@H]1CC[C@@H](C)C[C@@H]1O [ISOMENTHOL] | 6.7 | 0 | 0 | 0 | 3.3 | 0 | 33.3 | 10 | 0 | 0 | 0 | 0 | 3.3 | 0 | 0 | 6.7 | 6.7 | 26.7 | 0 | 6.7 | mortality [21]: 0%; mortality [22]: 0%; mortality [23]: 20%; mortality [24]: 0%; mortality [25]: 0%; mortality [26]: 0%; mortality [27]: 30%; mortality [28]: 0%; mortality [29]: 0%; mortality [30]: 3.3%; mortality [31]: 20%; mortality [32]: 0% |
